The source of these data is US12492169B2, “Aminopyridine compound and application thereof” (priority 2020, dated 2025).

In brackets after ≈: the same amount, converted by molar mass.

Data set [1] deals with Cryptococcus neoformans H99 ATCC 208821. Put plainly: Minimum inhibitory concentration (MIC) test against fungi. It counts as cell-based. Particulars: Cryptococcus neoformans, ATCC208821, 72 h, ≥50% growth inhibition by eye, three independent experiments, read-out: MIC. How it is done:
(§1) To test the minimum inhibitory concentration (MIC) and minimum effective concentration (MEC) of the drug against fungi.
Cryptococcus neoformans H99 ATCC 208821;
(§2) Test medium: RPMI1640 (containing 0.165 M MOPS, pH7.0)
(§3) On the day of the experiment, the compound in the bottle was dissolved in 100% DMSO to a stock solution concentration of 6.24 mg/mL. Then, the mixture was 10-fold diluted with DMSO to 0.624 mg/mL for use.
(§4) A 2-fold gradient dilution of the compound solution (0.624 mg/mL) was performed using DMSO on a 96-microwell plate (V-bottom) to obtain 100× working solutions (wells 1 to 11). 624, 312, 156, 78, 39, 20, 10, 5, 2.5, 1.25, 0.625 μg/mL. 100% DMSO was used as a positive control (well 12). This was the compound stock plate.
Cryptococcus neoformans H99 ATCC 208821 frozen at −80° C. was streaked on SDA plates and incubated aerobically in a 35±2° C. incubator for 48 hours.
(§5) On the day of the experiment, for strains Candida parapsilosis ATCC 22019, Candida albicans ATCC MYA-2876; Candida albicans WX-CA009; Candida glabrata ATCC15126; Candida tropicalis ATCC 750 and Cryptococcus neoformans H99 ATCC 208821, the plates were taken out and the clones on the plates were picked, suspended in normal saline, and then the turbidity of the fungal suspension was adjusted to OD600=0.2 using a turbidimeter. The fungal suspension contained about 3.0×10^6 CFU/mL. Then the turbidity-adjusted fungal suspension was diluted with a test medium to a concentration of about 3.0×10^3 CFU/mL. This was the inoculum.
(§6) 2 μL of 100× working solution from the compound stock plate (prepared in 3.1) was transferred to a round-bottomed 96-well plate (containing 98 μL of test medium), and then 100 μL of fungus inoculum (prepared in 3.2) was added to each well to obtain a MIC test plate. Therefore, the final test concentrations of the compounds were 6.24, 3.12, 1.56, 0.78, 0.39, 0.20, 0.10, 0.05, 0.025, 0.0125, 0.006 μg/mL. 1% DMSO was used as a growth control.
For Cryptococcus neoformans H99 ATCC 208821, all test plates were incubated aerobically in a 35±2° C. incubator for 72 hours.
(§7) After incubation, according to the criteria in Table 1 below, the test plate was observed by eye or microscope to determine the MIC (g/mL) and MEC (g/mL) of the test compound against yeast and mold.

Data set [2] deals with Candida albicans ATCC MYA-2876. The data set is described as above. It counts as cell-based. The following applies: Candida albicans, 24 h, ≥50% growth inhibition by eye, three independent experiments, read-out: MIC. How it is done:
as §1
(§8) Experimental strains: Candida parapsilosis ATCC 22019; Candida albicans ATCC MYA-2876; Candida albicans WX-CA009; Candida glabrata ATCC15126; Candida tropicalis ATCC 750;
as §2, §3, §4
(§9) Candida parapsilosis ATCC 22019 and Candida albicans ATCC MYA-2876; Candida albicans WX-CA009; Candida glabrata ATCC15126; Candida tropicalis ATCC 750 frozen at −80° C. were streaked on SDA plates and incubated aerobically in a 35±2° C. incubator for 24 hours.
as §5, §6
(§10) For strains Candida parapsilosis ATCC 22019; Candida albicans ATCC MYA-2876; Candida albicans WX-CA009; Candida glabrata ATCC15126; Candida tropicalis ATCC 750, all test plates were incubated aerobically in a 35±2° C. incubator for 24 hours.
as §7

For data set [3], the system named is Candida glabrata ATCC15126. The data set is described as above. Particulars: Nakaseomyces glabratus, ATCC15126, 24 h, ≥50% growth inhibition by eye, three independent experiments, read-out: MIC. Format: cell-based. How it is done:
as §1, §8, §2, §3, §4, §9, §5, §6, §10, §7

The subject of data set [4] is Candida albicans WX-CA009. Described as above. It counts as cell-based. Particulars: Candida albicans, WXCA009, 24 h, ≥50% growth inhibition by eye, three independent experiments, read-out: MIC. How it is done: as §1, §8, §2, §3, §4, §9, §5, §6, §10, §7
Data set [5] deals with Candida tropicalis ATCC 750. The data set is described as above. It counts as cell-based. Particulars: Candida tropicalis, ATCC750, 24 h, ≥50% growth inhibition by eye, three independent experiments, read-out: MIC. How it is done:
as §1, §8, §2, §3, §4, §9, §5, §6, §10, §7

Data set [6] deals with Candida parapsilosis ATCC 22019. The data set is described as above. The following applies: Lodderomyces parapsilosis, ATCC22019, 24 h, ≥50% growth inhibition by eye, three independent experiments (1st, 2nd, 3rd time), read-out: MIC. Format: cell-based. How it is done:
as §1, §8, §2, §3, §4, §9, §5, §6, §10, §7

In data set [7] the test system is Aspergillus fumigatus ATCC-MYA-4609. Put plainly: Minimum effective concentration (MEC) test against fungi. Format: cell-based. The following applies: change of hyphae morphology by microscope, 48 hours, three independent experiments. How it is done: as §1
(§11) Aspergillus fumigatus ATCC-MYA-4609; Aspergillus flavus ATCC MYA-1004
as §2, §3, §4
(§12) Aspergillus fumigatus ATCC-MYA-4609; Aspergillus flavus ATCC MYA-1004 frozen at −80° C. were streaked on SDA plates and incubated aerobically in a 30±2° C. incubator for 6 days.
(§13) For strains Aspergillus fumigatus ATCC MYA-4609; Aspergillus flavus ATCC MYA-1004, after taking out the plate, 3 mL of 0.9% normal saline containing 0.1% Tween20 was added to the plate and the spores were gently collected. The spores were counted with a hemocytometer and the spore suspension was adjusted to about 5×10^6 spores/mL. Then the spore suspension was diluted to 0.8 to 1×10^5 spores/mL with a test medium.
as §6
(§14) For mold strains Aspergillus fumigatus ATCC-MYA-4609 and Aspergillus flavus ATCC MYA-1004, all test plates were incubated aerobically in a 35±° C. incubator for 48 hours.
as §7

For data set [8], the system named is Aspergillus flavus ATCC MYA-1004. Described as above. It counts as cell-based. The following applies: change of hyphae morphology by microscope, 48 hours, three independent experiments. How it is done:
as §1, §11, §2, §3, §4, §12, §13, §6, §14, §7

In data set [9] the test system is Candida albicans ATCC MYA-2876. Put plainly: Mouse candidemia efficacy model. Format: in vivo. Particulars: female CD-1 mice infected with Candida albicans ATCC MYA-2876; 26 mg/kg intraperitoneally once a day for 7 days after 50 mg/kg ABT orally; n=5. How it is done: Experimental animals: female CD-1 mice, 7 weeks old, 27 to 29 g, n=5 or 8;
microbial pathogen: Candida albicans ATCC MYA-2876;
inoculation level and route: 2.0 to 4.0E+05 CFU/mouse, infected by tail vein injection;
treatment: The treatment started at 1 hour after infection. Firstly, ABT was administered orally, and 2 hours later, the test compound was injected intraperitoneally once a day for 7 days in total, with an administration volume of 10 mL/kg.
Observation indicators: Changes in body weight and mortality within 7 days after infection in each group of mice.

Data set [10] in a line: Mouse pharmacokinetic evaluation, intraperitoneal injection after oral ABT. Format: in vivo. The following applies: ip, female CD-1 mice, 6 mpk, ABT 50 mg/kg orally 2 hours before, plasma. The source says:
Experimental Purpose: Using female CD-1 mice as test animals, LC/MS/MS was used to measure the plasma drug concentration at different times after intraperitoneal injection of the test compound. To study the pharmacokinetic behavior of the test compound in mice and evaluate its pharmacokinetic characteristics. Drug preparation: An appropriate amount of sample was weighed and then prepared into a clear or suspended solution. Administration scheme: Two healthy female CD-1 mice were taken, purchased from Beijing Vital River Laboratory Animal Technology Co., Ltd., and given a normal diet. The drug was administered through intraperitoneal injection. Operational steps: 2 hours before administration, 1-aminobenzotriazole (ABT) was orally administered (50 mg/kg, 5 mg/mL in normal saline), and after animal administration, about 30 μL of blood was collected at 0.083, 0.25, 0.5, 1, 2, 4, 8, and 24 hours, and placed in commercially available anticoagulant tubes pre-added with EDTA-K2. The tubes were centrifuged for 10 minutes to separate the plasma, and the plasma was stored at −60° C. The content of the target compound in the plasma sample was determined by LC/MS/MS method, and the experimental results are shown in Table 3.

`Nc1ccc(C#CCc2ccc(Oc3cccc(F)n3)cc2)cn1` [WX009]: the minimum inhibitory concentration (MIC) (as a rule, the least concentration at which growth counts as inhibited) amounted to 0.025 µg/mL (≈ 0.0783 µM) in data set [1]; 0.05 µg/mL (≈ 0.157 µM) in data set [2]; 0.78 µg/mL (≈ 2.44 µM) in data set [3]; 0.05 µg/mL (≈ 0.157 µM) in data set [4]; 0.1 µg/mL (≈ 0.313 µM) in data set [5]; 0.05 µg/mL (≈ 0.157 µM) in [6]. The MEC in [7] and in data set [8] was 0.39 µg/mL in each case. Moreover, the “protection from death caused by candidemia” value in [9] was “completely protect”. In addition, the AUC in [10] (read-out: Concentration Integral AUC) is 67 µM·h. In addition, the Cmax in [10] (read-out: Peak Concentration Cmax) was 11.4 µM. Further, the time to peak (Tmax) (usually the time at which the peak concentration occurs) in data set [10] (read-out: Peak Time Tmax) came to 45 min.
